Measurements from patent publication US5334707A, “Use of acyl phosphate esters in the modification of hemoglobin” (priority 1992, dated 1994).
Entries after “also recorded” stand apart in the source; their conditions may differ.

How the values were obtained:
[1] = Solution stability (hydrolysis followed by 31P NMR) of bis(methyl acyl phosphates) in tris-HCl buffer; format: physicochemical; conditions: 0.100M tris-HCl buffer, pH 7.4, 37° C.; for half-life: 0.1 m tris-hcl buffer, 31P NMR
Description: The solution stability of the bis(methyl acyl phosphates) was examined. The hydrolysis of fumaryl bis(sodium methyl phosphate), stilbene 3,3'dicarboxylic acid bis(sodium methyl phosphate) and stilbene 4,4'dicarboxylic acid bis(sodium methyl phosphate) in 0.100M tris-HCL buffer, pH 7.4, 37° C., were followed by integrating signals for the reactant and the phosphorus-containing product, methyl phosphate, in the ^31 P NMR spectrum. Production of methyl phosphate was observed as an indication of hydrolysis or of acylation of the buffer. […] The half life of the 3,3'stilbene derivative, was 100 hours. […] This is in agreement with earlier reports of the reactivity of acyl phosphate esters (Disabato, G.; Jencks, W. P., J. Am. Chem. Soc. 1961, 83, 4393, 4400).

[2] = system: human hemoglobin; test: Inter-subunit cross-linking of hemoglobin by SDS-polyacrylamide gel electrophoresis; format: biochemical; conditions: 0.3 mM hemoglobin, pH 7.4, 37° C., four hours
Description: Solutions (2 mL) of 4,4'stilbene dicarboxylic acid bis(methyl phosphate) at concentrations of 0.3 mM, 3.0 mM, 30 mM, and 300 mM were prepared in 0.100M tris-HCL buffer pH 7.4. A control solution containing only the buffer was prepared. To each of these freshly prepared solutions, 40 mg of human hemoglobin (Sigma Chemical Company) was added so that the resulting solution was 0.3 mM in hemoglobin. The reaction mixtures were than stirred vigorously and incubated at 37° C. After four hours the solutions were dialyzed against 0.100M sodium phosphate buffer, pH 7.0, for 20 hours at 4° C. to remove the unreacted acyl phosphates. The samples were then lyophilized and analyzed by SDS-polyacrylamide gel electrophoresis to assess the extent of intersubunit cross-linking (Weber, K; Osborn, M.; J. Biol. Chem. 1969, 244, 4406). Prior to electrophoresis, the hemoglobin samples, cross-linked bovine hemoglobin standard (Sigma Dalton Mark VII-L doubly crystallized, dialyzed, lyophilized), and molecular weight standards were denatured by boiling for 15 min. in 0.11M sodium phosphate buffer, pH 7.0, which contained 1% sodium dodecyl sulfate, 1% 2-mercaptoethanol, 36% urea, and 0.015% bromphenol blue. The final protein concentrations were 2 mg/mL and 10 to 20 μL aliquots were loaded on the gel. The process was conducted using a Bio-Rad Mini-Protean II dual slab cell apparatus. The extent of cross-linking of the hemoglobin could be estimated by visual comparison of the resolved electrophoretic bands after fixation followed by staining with Coomassie Brilliant Blue R.
The above procedure was repeated with solutions of fumaryl bis(methyl phosphate) at concentrations of 0.3 mM, 3.0 mM and 30 mM; 3,3'stilbene dicarboxylic acid bis(methyl phosphate) at a concentration of 30 mM and methyl acetyl phosphate at a concentration of 0.6M.

[3] = target: carbonmonoxyhemoglobin (COHb) (Homo sapiens, UniProt P68871+P69905); test: Reaction of FMP with carbonmonoxyhemoglobin, conversion by anion exchange chromatography; format: biochemical
Sequence of carbonmonoxyhemoglobin (COHb) (P69905 2-142 limits assumed): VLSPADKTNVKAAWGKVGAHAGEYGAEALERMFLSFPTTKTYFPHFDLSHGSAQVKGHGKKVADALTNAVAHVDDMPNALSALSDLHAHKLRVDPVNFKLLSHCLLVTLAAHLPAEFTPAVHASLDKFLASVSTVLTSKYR
Sequence of carbonmonoxyhemoglobin (COHb) (P68871 2-147 limits assumed): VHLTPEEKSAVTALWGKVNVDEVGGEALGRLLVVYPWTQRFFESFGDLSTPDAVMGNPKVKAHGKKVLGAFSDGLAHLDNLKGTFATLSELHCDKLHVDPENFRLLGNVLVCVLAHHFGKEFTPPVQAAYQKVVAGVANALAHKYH
Description: The effect of pH, type of buffer, and ligand state of the cross-linked hemoglobin was examined for the reaction of fumaryl bis(methyl phosphate) (FMP) with hemoglobin.
ethanesulphonic acid]at pH 7.5, 35°, for 2 hours. Over the range of pH from 6.8 to 7.5, the greatest reaction between COHb and FMP was obtained at the pH of 7.2 in bisTris. The reaction at pH 7.2, . […] A second peak of reacted material observed by anion exchange chromatography increased over 3 hours from 14% at 10 minutes to about 30% by 3 hours.

[4] = system: human hemoglobin; test: Cross-linking site of the reaction with hemoglobin; format: biochemical
Description: Structural characterization of the major and some minor modified hemoglobins that result form reacting deoxyHb and COHb with FMP were made by isolating single hemoglobin components wherever possible. The initial separation was made on a preparative size Synchropak AX300 anion exchange column. Further purification was obtained by rechromatography of anion exchange zones containing mixtures of hemoglobins on a preparative size Synchropak CM300 cation exchange column. Zones from cation exchange rechromatography were then subjected to globin chain separation using Vydak C-4 large pore reverse phase columns. In some cases, this was sufficient for identification of the unmodified globin chains. In most cases the globin chain was isolated, treated by oxidations or aminoethylation to stabilize the zysteinyl residues, hydrolyzed with trypsin and glu-C proteonase and the resultant peptides were separated and analyzed for amino acid composition. Table II lists the components isolated and the structural modifications identified for the FMP treated hemoglobin.
The number, chromatographic elution positions, and amounts of products of hemoglobin reacted with FMP varies with the ligand state of the hemoglobin and with the presence or absence of 2,3-DPG (2,3, diphosphoglycerate). FIG. 1 is an artion exchange HPLC chromatogram of the reaction mixture after treatment of deoxyhemoglobin with FMP. […]

In the case of `COP(=O)(O)OC(=O)c1ccc(/C=C/c2ccc(C(=O)OP(=O)(O)OC)cc2)cc1` [Stilbene 4,4'-dicarboxylic acid bis(sodiummethyl phosphate)], the “change observed in the 31P NMR spectrum” value ([1]; followed for nine hours) is reported as “no change observed in the spectrum” and the “species produced by reaction with hemoglobin (SDS gel electrophoresis)” value (shortened to “species produced by reaction”) [2] is reported as “dimeric and tetrameric species”.
With `O=C(O)c1cccc(C=Cc2cccc(C(=O)O)c2)c1` [stilbene 3,3'-dicarboxylic acid, Stilbene 3,3'-dicarboxylic acid, reference compound] the “species produced by reaction” value [2] was “monomeric”.
For `COP(=O)(O)OC(=O)c1cccc(/C=C/c2cccc(C(=O)OP(=O)(O)OC)c2)c1` [Stilbene 3,3'-dicarboxylic acid bis(sodiummethyl phosphate)], the half-life [1] was 100 h and the “species produced by reaction” value [2] was “dimeric and tetrameric species”.
In the case of `COP(=O)(O)OC(=O)/C=C/C(=O)OP(=O)(O)OC` [fumaryl bis(methyl phosphate), Fumaryl bis(sodium methyl phosphate)], the half-life [1] is reported as 36 h, the “conversion of the hemoglobin to fumaryl derivatives” value ([3]; 1 mM COHb, 2 mM FMP, pH 7.2, 35°, 2 hours) is reported as “about 75%” and the “second peak of reacted material” value ([3]; 1 mM COHb, 2 mM FMP, pH 7.2, 35°, at 10 minutes) is reported as 14%. For the same compound, the “major modified component, percent of total hemoglobin” value ([3]; 1 mM COHb, 2 mM FMP, pH 7.2, 35°, by 10 minutes) was “approximately 35%”, the “second peak of reacted material” value ([3]; 1 mM COHb, 2 mM FMP, pH 7.2, 35°, by 3 hours) was “about 30%” and the “effect of buffer on amounts or varieties of reaction products” value ([3]; COHb, bisTris compared to HEPES, pH 7.5, 35°, 2 hours) was “No significant differences”. For the same compound, the “pH of greatest reaction between COHb and FMP” value ([3]; pH range 6.8 to 7.5, bisTris) was 7.2, the “cross-links formed in hemoglobin” value ([4]; absence of 2,3-diphosphoglycerate) was “cross-linked between β subunits (val-1 to lys-82) and between the same residues in a single β subunit as well as a cross-link between α subunits between lys-99 in each subunit; also recorded: cross-linked between β subunits (val-1 to lys-82) and between the same residues in a single β subunit as well as crosslinked between α subunits between lys-99 in each subunit” and the “cross-linking site of reaction” value ([4]; human hemoglobin) was “the highly cationic site which binds 2,3-diphosphoglycerate”. The “species produced by reaction” value [2] was “dimeric and tetrameric species”.
